Activity calls are given as the source filed them. The rule behind the calls is not given here.
How the values were obtained:
[1] = target: T1, 5-hydroxytryptamine receptor 1A (Homo sapiens, UniProt P08908); test: Displacement of [125I]WAY100635 from human 5HT1A receptor expressed in CHO cells; format: cell-based
T1 sequence (P08908 whole entry): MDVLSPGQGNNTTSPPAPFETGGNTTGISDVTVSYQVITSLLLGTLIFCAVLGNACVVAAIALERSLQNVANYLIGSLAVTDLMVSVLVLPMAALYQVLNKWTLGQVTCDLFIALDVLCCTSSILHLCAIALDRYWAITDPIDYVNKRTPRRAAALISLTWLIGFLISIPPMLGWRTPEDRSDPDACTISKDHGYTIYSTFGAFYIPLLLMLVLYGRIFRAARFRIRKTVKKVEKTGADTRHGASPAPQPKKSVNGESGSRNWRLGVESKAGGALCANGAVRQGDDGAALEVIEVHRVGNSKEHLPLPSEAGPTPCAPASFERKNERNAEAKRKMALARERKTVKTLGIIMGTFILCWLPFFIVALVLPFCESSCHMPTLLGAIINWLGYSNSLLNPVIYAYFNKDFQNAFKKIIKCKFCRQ

[2] = target: T2, 5-hydroxytryptamine receptor 1A (Homo sapiens) (UniProt P08908); test: Intrinsic activity at human 5HT1A receptor expressed in CHO cells by [35S]GTPgammaS binding assay; format: functional, cell-based
T2 sequence (whole entry): T1 sequence (P08908 whole entry)

[3] = target: T3, 5-hydroxytryptamine receptor 1B (Homo sapiens, UniProt P28222); test: Displacement of [3H]5HT from human 5HT1B receptor expressed in CHO cells; format: cell-based
T3 sequence (P28222 whole entry): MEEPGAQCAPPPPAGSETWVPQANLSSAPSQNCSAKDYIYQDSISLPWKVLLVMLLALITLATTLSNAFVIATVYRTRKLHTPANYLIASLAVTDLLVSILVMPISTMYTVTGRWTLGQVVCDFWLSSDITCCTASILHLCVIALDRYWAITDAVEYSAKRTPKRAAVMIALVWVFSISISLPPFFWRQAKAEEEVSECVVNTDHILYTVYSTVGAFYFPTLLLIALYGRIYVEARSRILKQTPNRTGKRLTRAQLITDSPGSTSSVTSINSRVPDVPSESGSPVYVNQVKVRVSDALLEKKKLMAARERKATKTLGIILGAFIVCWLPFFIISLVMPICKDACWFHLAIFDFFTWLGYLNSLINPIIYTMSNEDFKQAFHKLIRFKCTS

[4] = target: T3, 5-hydroxytryptamine receptor 1B; test: Intrinsic activity at human 5HT1B receptor expressed in CHO cells by [35S]GTPgammaS binding assay; format: functional, cell-based
[5] = target: T4, 5-hydroxytryptamine receptor 1D (Homo sapiens, UniProt P28221); test: Displacement of 3H]5HT from human 5HT1D receptor expressed in CHO cells; format: cell-based
T4 sequence (P28221 whole entry): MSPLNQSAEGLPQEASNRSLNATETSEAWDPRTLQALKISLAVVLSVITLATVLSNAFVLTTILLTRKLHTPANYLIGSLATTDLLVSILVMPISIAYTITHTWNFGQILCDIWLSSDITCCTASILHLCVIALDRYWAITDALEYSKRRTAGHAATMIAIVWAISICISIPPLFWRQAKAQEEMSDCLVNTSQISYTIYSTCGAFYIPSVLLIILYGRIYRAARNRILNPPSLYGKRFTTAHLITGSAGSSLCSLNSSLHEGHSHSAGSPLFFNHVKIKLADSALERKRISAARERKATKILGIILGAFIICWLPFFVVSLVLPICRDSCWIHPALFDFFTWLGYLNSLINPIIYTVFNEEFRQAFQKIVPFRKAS

[6] = target: T4, 5-hydroxytryptamine receptor 1D; test: Intrinsic activity at human 5HT1D receptor expressed in CHO cells by [35S]GTPgammaS binding assay; format: functional, cell-based
[7] = Metabolic stability in rat microsomes assessed as intrinsic clearance; format: ADME, Microsome
[8] = Metabolic stability in human microsomes assessed as intrinsic clearance; format: ADME, Microsome
[9] = Clearance in rat blood at 1 mg/kg, iv; format: ADME, organism-based; set-up: dose 1 mg/kg, route intravenous
[10] = Half life in rat at 1 mg/kg, iv; format: ADME, organism-based; set-up: dose 1 mg/kg, route intravenous; conditions: in vivo
[11] = Ratio of drug level in brain to blood in rat at 3 mg/kg, po; format: ADME, organism-based; set-up: dose 3 mg/kg, route oral; conditions: read-out: BBR
[12] = Volume of distribution at steady state rat; format: ADME, organism-based; conditions: in vivo, read-out: Vdss
[13] = Cmax in rat brain at 3 mg/kg, po; format: ADME, organism-based; set-up: dose 3 mg/kg, route oral
[14] = target: T2, 5-hydroxytryptamine receptor 1A (Homo sapiens); test: Inverse agonist activity at human 5HT1A receptor expressed in CHO cells; format: functional, cell-based

Ki [1] [nM]	Intrinsic activity [2]	Ki [3] [nM]	Intrinsic activity [4]	Ki [5] [nM]	Intrinsic activity [6]	SMILES	other results
2.51	0	2	0.3	0.631	0.5	Cc1ccc2c(OCCN3CCC(Cc4cccc(N5CCN[C@H](C)C5)c4)CC3)cccc2n1	–
2.51	0	7.94	0.3	0.631	0.5	Cc1ccc2c(OCCN3CCC(Cc4cccc(N5CCCN(C)CC5)c4)CC3)cccc2n1	CLint scaled [7]: 26 mL/min/kg
63.1	–	63.1	–	7.94	–	Cc1ccc2c(OCCN3CCC(Cc4cccc(-c5ccccc5)c4)CC3)cccc2n1	–
12.6	–	158	–	3.98	–	CC(=O)N1CCC(c2cccc(CC3CCN(CCOc4cccc5nc(C)ccc45)CC3)c2)CC1	–
2.51	–	158	–	1.58	–	Cc1ccc2c(OCCN3CCC(Cc4cccc(N5C[C@@H](C)O[C@@H](C)C5)c4)CC3)cccc2n1	–
20	–	63.1	–	3.98	–	Cc1ccc2c(OCCN3CCC(Cc4cccc(N5CCN(C)CC5=O)c4)CC3)cccc2n1	–
–	0	–	0.3	–	0	Cc1ccc2c(OCCN3CCC(Cc4cccc(NS(C)(=O)=O)c4)CC3)cccc2n1	–
5.01	0	126	0.4	2.51	0.6	Cc1ccc2c(OCCN3CCC(Cc4cccc(N5CCOCC5)c4)CC3)cccc2n1	–
10	–	39.8	–	2.51	–	Cc1ccc2c(OCCN3CCC(Cc4cccc(N5CCCC5)c4)CC3)cccc2n1	–
1	0	6.31	0.3	0.501	0.4	Cc1ccc2c(OCCN3CCC(Cc4cccc(N5CCN(C)CC5)c4)CC3)cccc2n1	CLint scaled [8]: 1.6 mL/min/kg; CLint scaled [7]: 2.9 mL/min/kg; clearance [9]: 46 mL/min/kg; half-life [10]: 78 min; Kp [11]: 18; Vd [12]: 4.4 L/kg; Cmax [13]: 85 ng/g
5.01	–	31.6	–	1	–	Cc1ccc2c(OCCN3CCC(Cc4cccc(N5C[C@@H](C)NC[C@@H]5C)c4)CC3)cccc2n1	–
3.98	0	15.8	0.3	1	0.5	Cc1ccc2c(OCCN3CCC(Cc4cccc(N5CCN[C@@H](C)C5)c4)CC3)cccc2n1	–
7.94	–	7.94	–	1	–	Cc1ccc2c(OCCN3CCC(Cc4cccc(-c5ccncc5)c4)CC3)cccc2n1	–
5.01	–	12.6	–	2	–	Cc1ccc2c(OCCN3CCC(Cc4cccc(-c5cccnc5)c4)CC3)cccc2n1	–
7.94	–	79.4	–	3.16	–	Cc1ccc2c(OCCN3CCC(Cc4cccc(C5CCN(S(C)(=O)=O)CC5)c4)CC3)cccc2n1	–
3.98	0	2	0.6	1	0.7	Cc1ccc2c(OCCN3CCC(Cc4cccc(N5CCCCC5)c4)CC3)cccc2n1	CLint scaled [7]: 6.2 mL/min/kg
2	0	3.98	0.3	0.794	0.5	Cc1ccc2c(OCCN3CCC(Cc4cccc(N5C[C@@H](C)N[C@@H](C)C5)c4)CC3)cccc2n1	–
–	–	–	0.2	–	0.4	Cc1ccc2c(OCCN3CCC(Cc4cccc(NC(=O)CN(C)C)c4)CC3)cccc2n1	Activity [14]: Active
7.94	–	126	–	10	–	Cc1ccc2c(OCCN3CCC(Cc4cccc(N5CCN(C)C(=O)C5)c4)CC3)cccc2n1	–
3.16	–	5.01	0.3	0.2	0.4	Cc1ccc2c(OCCN3CCC(Cc4cccc(C5CCN(C)CC5)c4)CC3)cccc2n1	CLint scaled [8]: < 0.5 mL/min/kg; CLint scaled [7]: 2 mL/min/kg; clearance [9]: 14 mL/min/kg; half-life [10]: 720 min; Kp [11]: 1.3; Vd [12]: 12.4 L/kg; Cmax [13]: 34 ng/g; Activity [14]: Active
6.31	–	6.31	–	1.26	–	Cc1ccc2c(OCCN3CCC(Cc4cccc(C5CCNCC5)c4)CC3)cccc2n1	–
31.6	–	39.8	–	6.31	–	Cc1ccc2c(OCCN3CCC(Cc4cccc(-c5ccoc5)c4)CC3)cccc2n1	–
